# Experimental data reported in US20250368648A1, “MULTI-CYCLIC IRAK AND FLT3 INHIBITING COMPOUNDS AND USES THEREOF” (CHILDREN'S HOSPITAL MEDICAL CENTER, priority 2022, published 2025).
# “Also recorded” adds a separate entry of the source.
# Tests used:
# [1] = test system: MOLM14-FLT3-ITD(D835Y) acute myeloid leukemia cells; experiment: AML efficacy study in mice engrafted with MOLM14-FLT3-ITD(D835Y); type: in vivo
# Experimental: Female, NSG-SGM3 (NOD.Cg-Prkdc^scid Il2^tm1Wjl Tg(CMV-IL3, CSF2, KITLG)1Eav/MloySzJ) mice were intravascularly engrafted with MOLM14-FLT3-ITD(D835Y) acute myeloid leukemia cells. Injection of leukemia cells was performed on 3/21/2022. Mice were randomized and dosing began three weeks following engraftment. […] Mice experiencing clinical signs prior to scheduled end-date, including weight loss, lethargy, hunched posture, ruffled coat, or hind limb paralysis were humanely euthanized.
# Bone marrow aspirates were performed when the initial vehicle control mice became clinical, 9 days following initiation of treatment. Aspirates were centrifuged, treated with RBC lysis buffer, resuspended in 250 μL PBS, and two cytospin chamber slides were loaded with 125 μL. Cytospins were used to create two cytology slides per mouse: one for Wright-Giemsa staining and the other for huCD45 immunocytochemistry, if needed. Cytology slides were graded according to the number of leukemic cells identified per 400× field as follows: 0, none; 1, 1-5 CD45+ cells; 2, 6-10 CD45+ cells; 3, 11-15 CD45+ cells; 4, 16-30 CD45+ cells; 5, >30 CD45+ cells.
# At necropsy, sections of femur, tibia, vertebra, and sternum were evaluated for the presence of leukemic cells using H&E and CD45 immunohistochemistry, if needed. Grades for long bones, vertebrae, and sternum were recorded as follows: 0, no leukemic cells; 1, <1% of cells; 2, 1-10% of cells; 3, 10-50% of bone marrow; 4, >50% of bone marrow. Sums of the individual grades were taken for each mouse (range 0 to 12).
# Leukemic burden was measured in NSGS mice xenografted with MOLM14 FLT3-ITD(D835Y) and quantified using bone marrow (BM) aspirates. An initial BM aspirate, accompanied by peripheral CBC evaluation (submandibular samples), was collected at the time that clinical signs first appeared in control mice to verify AML engraftment prior to the start of drug dosing. Cytospin chambers were used to create two cytology slides per bone marrow sample. Aspirate samples were of high quality for 85% of samples. A semi-quantitative grading system was applied to each bone marrow aspirate according to the number of leukemic cells identified per 400× field as follows:
# • 1: 1-5 leukemic cells (per HPF) • 2: 6-10 leukemic cells • 3: 11-15 leukemic cells • 4: 16-30 leukemic cells • 5: >30 leukemic cells
# All mice had evidence of leukemia within the bone marrow aspirate. Histopathology scores we re-taken for long bones (femur and tibia), vertebrae, and sternum as follows: 0, no leukemic cells; 1, <1% of cells; 2, 1-10% of cells; 3, 10-50% of bone marrow; 4, >50% of bone marrow. Scores were totaled (range: 0 to 12) and plotted by group at necropsy. […] To incorporate survival, the bone marrow grade was divided by the time on test (FIG. 10).
# hERG = hERG (Homo sapiens, UniProt Q12809); experiment: Window to the hERG IC50 at the dose studied (FIG. 9B); conditions: at the dose studied (30 mg/kg, mice)
# THP1 cells = experiment: Combination drug screening, Cell Titer Glo, THP1 cells; conditions: FLT3 WT setting (THP1 cells), Cell Titer Glo, 48 hours;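 further: luminescence read out in 1536-well plates seeded with 500 THP1 cells per well, each drug spanning a 10-point concentration range in the combination matrix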
# Excerpt: A smaller concentration indicates higher potency to synergize with Venetoclax. […] The numbers in each cell represent the % response (left) or the Delta Bliss score (right) at each given concentration combination.
# A smaller concentration indicates higher potency to synergize with azacitidine. […] The numbers in each cell represent the % response (left) or the Delta Bliss score (right) at each given concentration combination.
# (§1) This is a cell line that has the FLT3 ITD mutation but also the FLT3 D835Y kinase domain mutation. […] Excess HSA is a measure of synergy vs. additivity or antagonism, wherein a negative Excess HSA value is indicative of synergy.
# Briefly, 10 nL of compounds were acoustically dispensed into 1536-well white polystyrene tissue culture-treated plates with an Echo 550 acoustic liquid handler (Labcyte). MOLM14 (D835Y) or THP1 cells were then added to compound-containing plates at a density of 500-cells/well in 5 μL of medium. A 10-point custom concentration range was used for all listed drugs. […] 48h post compound addition, 3 μL of Cell Titer Glo (Promega) were added to each well and plates were incubated at room temperature for 15 minutes with the stainless-steel lid in place. Luminescence readings were taken using a Viewlux imager (PerkinElmer) with a 2 second exposure time per plate.
# [2] = test system: MOLM14-FLT3-ITD (D835Y) AML cells; experiment: Caspase-Glo 3/7 apoptosis assay, time course; type: cell-based
# MOLM14 (D835Y) cells = experiment: Combination drug screening, Cell Titer Glo, MOLM14 (D835Y) cells; conditions: FLT3 mutant setting (ITD-D835Y cells), Cell Titer Glo, 48 hours;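 further: MOLM14 cells with FLT3 ITD plus D835Y, 500 per well in 1536-well plates, 10-point dose ranges, luminescent viability after 48 h, negative Excess HSA indicates synergy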
# Experimental: Briefly, 10 nL of the compound shown below was acoustically dispensed into 1536-well white polystyrene tissue culture-treated plates with an Echo 550 acoustic liquid handler (Labcyte). Cells were then added to compound-containing plate at a density of 500-cells/well in 5 μL of medium. A 6-point or 10-point custom concentration range was used for all listed drugs. Plates were incubated for 48 hours at standard incubator conditions covered by a stainless steel gasketed lid to prevent evaporation. 48h post compound addition, 3 μL of Cell Titer Glo (Promega) were added to each well and plates were incubated at room temperature for 15 minutes with the stainless-steel lid in place. Luminescence readings were taken using a Viewlux imager (PerkinElmer) with a 2 second exposure time per plate.
# A smaller concentration indicates higher potency to synergize with Venetoclax.
# A smaller concentration indicates higher potency to synergize with azacitidine.
# as §1
# hERG, sequence (Q12809 whole entry): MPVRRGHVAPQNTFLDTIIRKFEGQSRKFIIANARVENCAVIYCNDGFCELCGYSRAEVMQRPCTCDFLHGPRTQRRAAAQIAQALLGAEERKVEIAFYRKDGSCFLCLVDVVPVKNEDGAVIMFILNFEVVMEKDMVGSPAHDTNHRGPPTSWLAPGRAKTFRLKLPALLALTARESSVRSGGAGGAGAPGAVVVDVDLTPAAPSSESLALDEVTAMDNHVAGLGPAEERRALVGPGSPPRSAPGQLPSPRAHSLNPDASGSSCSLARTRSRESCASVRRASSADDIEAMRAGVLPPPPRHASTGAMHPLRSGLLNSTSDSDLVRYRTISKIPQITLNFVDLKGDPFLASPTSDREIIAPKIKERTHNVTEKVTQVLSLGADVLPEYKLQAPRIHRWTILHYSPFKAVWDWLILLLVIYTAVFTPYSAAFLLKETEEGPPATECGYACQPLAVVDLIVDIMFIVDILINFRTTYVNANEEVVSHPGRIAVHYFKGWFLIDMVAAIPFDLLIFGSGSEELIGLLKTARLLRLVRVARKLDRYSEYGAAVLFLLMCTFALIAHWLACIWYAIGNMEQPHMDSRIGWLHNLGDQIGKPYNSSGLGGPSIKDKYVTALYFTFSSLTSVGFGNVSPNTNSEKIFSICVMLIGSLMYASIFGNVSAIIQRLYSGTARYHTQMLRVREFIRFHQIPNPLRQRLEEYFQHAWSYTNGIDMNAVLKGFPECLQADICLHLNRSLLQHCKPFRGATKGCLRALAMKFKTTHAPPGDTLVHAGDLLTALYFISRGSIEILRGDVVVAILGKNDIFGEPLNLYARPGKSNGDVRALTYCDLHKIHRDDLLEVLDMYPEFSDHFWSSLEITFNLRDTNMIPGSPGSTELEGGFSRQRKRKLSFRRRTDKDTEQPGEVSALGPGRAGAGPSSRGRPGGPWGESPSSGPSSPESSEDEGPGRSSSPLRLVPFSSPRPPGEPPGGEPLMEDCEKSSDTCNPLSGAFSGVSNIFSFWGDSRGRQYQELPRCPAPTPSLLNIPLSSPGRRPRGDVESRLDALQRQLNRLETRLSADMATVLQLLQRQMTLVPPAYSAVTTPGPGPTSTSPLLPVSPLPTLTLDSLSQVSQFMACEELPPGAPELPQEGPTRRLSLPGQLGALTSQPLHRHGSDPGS
smiles,measurement,setting,value
"COc1cc2ncc(-c3nc(N[C@@H]4CCCNC4)c(F)cc3F)n2nc1C1CC1 [Compound 106, (R)-6-(6-cyclopropyl-7-methoxyimidazo[1,2-b]pyridazin-3-yl)-3,5-difluoro-N-(piperidin-3-yl)pyridin-2-amine]",survival,"[1]; 30 mg/kg orally once/day M-F, 90 days, NSG-SGM3 mice",Significant survival differences; also recorded: enhanced survival in mice compared to gilteritinib and CA-4948 (emavusertib); also recorded: improved survival compared to those treated with gilteritinib or emavusertib (CA-4948)
same,plasma levels (Cmax and AUC) against comparators,"[1]; 30 mg/kg, mice, FIG. 9B",not due to higher plasma levels vs. gilteritinib or emavusertib
same,survival-adjusted leukemic burden (bone marrow grade divided by time on test),"[1]; 90 day study, 30 mg/kg",decreased scores compared to standard of care F02 (Gilteritinib); also recorded: superior in reducing survival-adjusted leukemic burden
same,survival persisting after withdrawal of the compound,"[1]; after 90 days of treatment at 30 mg/kg, study then ended",7 days
same,bone marrow grades (leukemic burden) at necropsy,"[1]; sum of histopathology scores of long bones, vertebrae, sternum (range 0 to 12)",Decreased bone marrow grades
same,window to the hERG IC50,hERG,larger window to the hERG IC50 than does emavusertib (CA-4948)
same,synergy with venetoclax or azacitidine,THP1 cells,considerably more potent as a synergistic agent than either Gilteritinib or emavusertib (CA-4948)
same,combination activity with venetoclax (apoptosis induction),[2]; dose level 6: gilteritinib 25 nM or Compound 106 12 nM with venetoclax 25 nM,much stronger than any of the other drug combinations
same,combination activity with venetoclax (apoptosis induction over 24 hours),[2]; dose level 7: 4 nM of Compound 106 and 8 nM of venetoclax,high activity
same,"cells entering apoptosis, combination with venetoclax","[2]; dose level 7: 4 nM of Compound 106 and 8 nM of venetoclax, four hours",about half of the cells enter into apoptosis in four hours
same,combination activity with venetoclax (apoptosis induction over 24 hours),[2]; dose level 8: 1.37 nM of Compound 106 and 2.7 nM of venetoclax,high activity
same,cells stimulated to apoptosis,"[2]; single agent, 1.37 nM, 12 hours of coverage",about 30%
same,"time at which apoptosis starts, single agent","[2]; single agent, even at the lowest dose of 1.37 nM, Caspase-Glo 3/7",≤ 12 h
same,synergy with venetoclax or azacitidine,MOLM14 (D835Y) cells,considerably more potent as a synergistic agent than either Gilteritinib or emavusertib (CA-4948)
